Measurements from patent US6432434B1, “Treatment of and/or prophylaxis against brain and spinal cord injury” (The United States of America as represented by the …, priority 1999, dated 2002).
Like-named read-outs stand apart in the source and are kept apart here.

Legend:
[1] = test system: rats injected intrathecally with dynorphin A; assay: Dynorphin A-induced paralysis in rats, neurological score; format: in vivo, rat; settings: n = 9, 5 μmoles DHL in DMSO intrathecally
Procedure: Rats were injected with […] of dynorphin A in combination with DMSO (vehicle only) or dynorphin A (Dny) with 5 μmoles of dihydrolipoate in DMSO. The DMSO (control) and the DMSO with dihydrolipoate (DHL/DMSO) were administered as 2 hour pretreatment before administration of the dynorphin A and as cotreatment with dynorphin A. All rats were flaccidly paralyzed 10 minutes following dynorphin a injections. All injections were administered intrathecally.

[2] = test system: ischemia-reperfusion injury; settings: gerbil; cited from earlier work
[3] = test system: NMDA and malonic acid lesions of striatum; settings: rats; cited from earlier work
[4] = man, cited from earlier work
[5] = test system: ischemia-reperfusion injury; settings: rat; cited from earlier work
[6] = 2 hrs, pretreatment and cotreatment with dynorphin A
[7] = 24 hrs, pretreatment and cotreatment with dynorphin A

Compound: O=C(O)CCCC[C@@H](S)CCS (racemic) [DHL, dihydrolipoic acid]
- Number of animals with neurological score 4 (normal) ([1]; 2 hrs, 2 hour pretreatment and cotreatment with 20 μmoles dynorphin A, 4 normal, 0 flaccid paralysis): 2
- Number of animals with neurological score 0 (flaccid paralysis) [1, 6]: 1
- Number of animals with neurological score 1 [1, 6]: 1
- Number of animals with neurological score 2 [1, 6]: 2
- Number of animals with neurological score 3 [1, 6]: 3
- Number of animals with neurological score 1 [1, 7]: 2
- Number of animals with neurological score 3 [1, 7]: 3
- Number of animals with neurological score 4 (normal) [1, 7]: 4

Compound: O=C(O)CCCCC1CCSS1 (stereo not drawn) [Alpha lipoic acid]
- Neuroprotection against ischemia-reperfusion injury [2]: neuroprotective
- Effect against NMDA lesions of striatum [3]: effective
- Effect against malonic acid lesions of striatum [3]: effective
- Clinical safety / tolerability [4]: clinically safe
- Clinical safety / tolerability ([4]; listed as αLA): well tolerated
- Neuroprotection against ischemia-reperfusion injury [5]: neuroprotective
